Test results from patent publication US9156796B2, “Benzoimidazole-carboxylic acid amide derivatives as APJ receptor modulators” (SANOFI, priority 2013, dated 2015).

target: T1, human apelin receptor (Homo sapiens, UniProt P35414); experiment: Determination of agonism on the human apelin receptor by a calcium fluorescence assay (FLIPR); format: cell-based; settings: HEK293 cells stably transfected with human apelin receptor and Giaq protein, Fluo-4 calcium fluorescence, read-out: EC50 (APJ agonism)
T1 construct: expressed in transfected cells
T1 sequence (P35414 1-380): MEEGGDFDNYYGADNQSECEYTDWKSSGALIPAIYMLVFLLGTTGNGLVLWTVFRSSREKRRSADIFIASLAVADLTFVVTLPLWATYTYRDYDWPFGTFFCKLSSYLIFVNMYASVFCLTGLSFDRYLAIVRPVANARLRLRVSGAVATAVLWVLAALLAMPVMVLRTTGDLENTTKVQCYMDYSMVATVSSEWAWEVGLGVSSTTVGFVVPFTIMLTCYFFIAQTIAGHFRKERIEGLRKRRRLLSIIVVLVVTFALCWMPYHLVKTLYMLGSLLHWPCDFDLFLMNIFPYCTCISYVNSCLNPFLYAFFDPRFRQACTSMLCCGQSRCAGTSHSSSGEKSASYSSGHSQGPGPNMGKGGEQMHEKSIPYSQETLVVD
Outline: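 Agonist EC50s come from peak intracellular calcium transients recorded by FLIPR Tetra, scaled to the 1 μM apelin-13 maximum per plate. Test system: HEK293 stably transfected with human apelin receptor plus Giaq, Fluo-4-loaded (4 μM, 1 h, 37 °C, pH 7.4 buffer with probenecid); ≥7 concentrations, triplicates.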

Row | EC50 [nM] | Structure (SMILES)
1 | 3990 | CCC(CC)n1c(Cc2cccs2)nc2cc(C(=O)N[C@@H](CC(C)C)C(=O)NCc3cccs3)ccc21 [Example 222, 1-(1-Ethyl-propyl)-2-thiophen-2-ylmethyl-1H-benzoimidazole-5-carboxylic acid {(S)-3-methyl-1-[(thiophen-2-ylmethyl)-carbamoyl]-butyl}-amide]
2 | 300 | CCC(CC)n1c(Cc2cccs2)nc2cc(C(=O)N[C@@H](CC(C)C)C(=O)NCCCN(C)C)ccc21 [Example 224, 1-(1-Ethyl-propyl)-2-thiophen-2-ylmethyl-1H-benzoimidazole-5-carboxylic acid [(S)-1-(3-dimethylamino-propylcarbamoyl)-3-methyl-butyl]-amide]
3 | 775 | CCC(CC)n1c(Cc2cccs2)nc2cc(C(=O)N[C@@H](CC(C)C)C(=O)N3CCN(C)CC3)ccc21 [Example 225, 1-(1-Ethyl-propyl)-2-thiophen-2-ylmethyl-1H-benzoimidazole-5-carboxylic acid [(S)-3-methyl-1-(4-methyl-piperazine-1-carbonyl)-butyl]-amide]
4 | 4870 | CCC(CC)NC(=O)[C@H](CC(C)C)NC(=O)c1ccc2c(c1)nc(Cc1cccs1)n2C(CC)CC [Example 226, 1-(1-Ethyl-propyl)-2-thiophen-2-ylmethyl-1H-benzoimidazole-5-carboxylic acid [(S)-1-(1-ethyl-propylcarbamoyl)-3-methyl-butyl]-amide]
5 | 288 | CCC(CC)n1c(Cc2cccs2)nc2cc(C(=O)N[C@@H](CC(C)C)C(=O)NCCN3CCCC3)ccc21 [Example 230, 1-(1-Ethyl-propyl)-2-thiophen-2-ylmethyl-1H-benzoimidazole-5-carboxylic acid [(S)-3-methyl-1-(2-pyrrolidin-1-yl-ethylcarbamoyl)-butyl]-amide]
6 | 525 | CCC(CC)n1c(Cc2cccs2)nc2cc(C(=O)N[C@@H](CC(C)C)C(=O)NCCN3CCOCC3)ccc21 [Example 231, 1-(1-Ethyl-propyl)-2-thiophen-2-ylmethyl-1H-benzoimidazole-5-carboxylic acid [(S)-3-methyl-1-(2-morpholin-4-yl-ethylcarbamoyl)-butyl]-amide]
7 | 2920 | CCC(CC)n1c(Cc2cccs2)nc2cc(C(=O)N[C@@H](CC(C)C)C(=O)NC(C)CC(C)C)ccc21 (stereo partly drawn) [Example 232, 1-(1-Ethyl-propyl)-2-thiophen-2-ylmethyl-1H-benzoimidazole-5-carboxylic acid [(S)-1-(1,3-dimethyl-butylcarbamoyl)-3-methyl-butyl]-amide]
8 | 394 | CCC(CC)n1c(Cc2cccs2)nc2cc(C(=O)N[C@@H](CC(C)C)C(=O)NCCN3CCCCC3)ccc21 [Example 233, 1-(1-Ethyl-propyl)-2-thiophen-2-ylmethyl-1H-benzoimidazole-5-carboxylic acid [(S)-3-methyl-1-(2-piperidin-1-yl-ethylcarbamoyl)-butyl]-amide]
9 | 344 | CCC(CC)n1c(Cc2cccs2)nc2cc(C(=O)N[C@@H](CC(C)C)C(=O)NCCCN3CCOCC3)ccc21 [Example 234, 1-(1-Ethyl-propyl)-2-thiophen-2-ylmethyl-1H-benzoimidazole-5-carboxylic acid [(S)-3-methyl-1-(3-morpholin-4-yl-propylcarbamoyl)-butyl]-amide]
10 | 2480 | CCC(CC)n1c(Cc2cccs2)nc2cc(C(=O)N[C@@H](CC(C)C)C(=O)NC3CCCC3)ccc21 [Example 237, 1-(1-Ethyl-propyl)-2-thiophen-2-ylmethyl-1H-benzoimidazole-5-carboxylic acid ((S)-1-cyclopentylcarbamoyl-3-methyl-butyl)-amide]
11 | 257 | CCC(CC)n1c(Cc2cccs2)nc2cc(C(=O)N[C@@H](CC(C)C)C(=O)NCCCN3CCCC3)ccc21 [Example 241, 1-(1-Ethyl-propyl)-2-thiophen-2-ylmethyl-1H-benzoimidazole-5-carboxylic acid [(S)-3-methyl-1-(3-pyrrolidin-1-yl-propylcarbamoyl)-butyl]-amide]
12 | 771 | CCC(CC)n1c(Cc2cccs2)nc2cc(C(=O)N[C@@H](CC(C)C)C(=O)NC(C)CN(C)C)ccc21 (stereo partly drawn) [Example 243, 1-(1-Ethyl-propyl)-2-thiophen-2-ylmethyl-1H-benzoimidazole-5-carboxylic acid [(S)-1-(2-dimethylamino-1-methyl-ethylcarbamoyl)-3-methyl-butyl]-amide]
13 | 291 | CCC(CC)n1c(Cc2cccs2)nc2cc(C(=O)N[C@@H](CC(C)C)C(=O)NCCCCN(C)C)ccc21 [Example 245, 1-(1-Ethyl-propyl)-2-thiophen-2-ylmethyl-1H-benzoimidazole-5-carboxylic acid [(S)-1-(4-dimethylamino-butylcarbamoyl)-3-methyl-butyl]-amide]

Second part, the compound before the results:

Row | Structure (SMILES) | EC50 [nM]
14 | CCC(CC)n1c(Cc2cccs2)nc2cc(C(=O)N[C@@H](CC(C)C)C(=O)NCCc3cccs3)ccc21 [Example 223, 1-(1-Ethyl-propyl)-2-thiophen-2-ylmethyl-1H-benzoimidazole-5-carboxylic acid [(S)-3-methyl-1-(2-thiophen-2-yl-ethylcarbamoyl)-butyl]-amide] | 6960
15 | CCC(CC)n1c(Cc2cccs2)nc2cc(C(=O)N[C@@H](CC(C)C)C(=O)NCCCN3CCN(C)CC3)ccc21 [Example 227, 1-(1-Ethyl-propyl)-2-thiophen-2-ylmethyl-1H-benzoimidazole-5-carboxylic acid {(S)-3-methyl-1-[3-(4-methyl-piperazin-1-yl)-propylcarbamoyl]-butyl}-amide] | 287
16 | CCC(CC)n1c(Cc2cccs2)nc2cc(C(=O)N[C@@H](CC(C)C)C(=O)Nc3ccc(F)cc3)ccc21 [Example 228, 1-(1-Ethyl-propyl)-2-thiophen-2-ylmethyl-1H-benzoimidazole-5-carboxylic acid [(S)-1-(4-fluoro-phenylcarbamoyl)-3-methyl-butyl]-amide] | 8500
17 | CCC(CC)n1c(Cc2cccs2)nc2cc(C(=O)N[C@@H](CC(C)C)C(=O)N3CC(C)OC(C)C3)ccc21 (stereo partly drawn) [Example 229, 1-(1-Ethyl-propyl)-2-thiophen-2-ylmethyl-1H-benzoimidazole-5-carboxylic acid [(S)-1-(2,6-dimethyl-morpholine-4-carbonyl)-3-methyl-butyl]-amide] | 1940
18 | CCC(CC)n1c(Cc2cccs2)nc2cc(C(=O)N[C@@H](CC(C)C)C(=O)N3CCN(c4ccccc4)CC3)ccc21 [Example 235, 1-(1-Ethyl-propyl)-2-thiophen-2-ylmethyl-1H-benzoimidazole-5-carboxylic acid [(S)-3-methyl-1-(4-phenyl-piperazine-1-carbonyl)-butyl]-amide] | 1300
19 | CCC(CC)n1c(Cc2cccs2)nc2cc(C(=O)N[C@@H](CC(C)C)C(=O)NCc3ccc(OC)cc3)ccc21 [Example 236, 1-(1-Ethyl-propyl)-2-thiophen-2-ylmethyl-1H-benzoimidazole-5-carboxylic acid [(S)-1-(4-methoxy-benzylcarbamoyl)-3-methyl-butyl]-amide] | 3870
20 | CCC(CC)n1c(Cc2cccs2)nc2cc(C(=O)N[C@@H](CC(C)C)C(=O)NCc3ccccc3OC)ccc21 [Example 238, 1-(1-Ethyl-propyl)-2-thiophen-2-ylmethyl-1H-benzoimidazole-5-carboxylic acid [(S)-1-(2-methoxy-benzylcarbamoyl)-3-methyl-butyl]-amide] | 6550
21 | CCC(CC)n1c(Cc2cccs2)nc2cc(C(=O)N[C@@H](CC(C)C)C(=O)NCc3ccc4c(c3)OCO4)ccc21 [Example 239, 1-(1-Ethyl-propyl)-2-thiophen-2-ylmethyl-1H-benzoimidazole-5-carboxylic acid {(S)-1-[(benzo[1,3]dioxol-5-ylmethyl)-carbamoyl]-3-methyl-butyl}-amide] | 5590
22 | CCC(CC)n1c(Cc2cccs2)nc2cc(C(=O)N[C@@H](CC(C)C)C(=O)N(C)CCc3ccccn3)ccc21 [Example 240, 1-(1-Ethyl-propyl)-2-thiophen-2-ylmethyl-1H-benzoimidazole-5-carboxylic acid {(S)-3-methyl-1-[methyl-(2-pyridin-2-yl-ethyl)-carbamoyl]-butyl}-amide] | 614
23 | CCC(CC)n1c(Cc2cccs2)nc2cc(C(=O)N[C@@H](CC(C)C)C(=O)Nc3ccc(N(CC)CC)cc3)ccc21 [Example 242, 1-(1-Ethyl-propyl)-2-thiophen-2-ylmethyl-1H-benzoimidazole-5-carboxylic acid [(S)-1-(4-diethylamino-phenylcarbamoyl)-3-methyl-butyl]-amide] | 5930
24 | CCC(CC)n1c(Cc2cccs2)nc2cc(C(=O)N[C@@H](CC(C)C)C(=O)NCc3ccc(F)cc3)ccc21 [Example 244, 1-(1-Ethyl-propyl)-2-thiophen-2-ylmethyl-1H-benzoimidazole-5-carboxylic acid [(S)-1-(4-fluoro-benzylcarbamoyl)-3-methyl-butyl]-amide] | 4280
25 | CCC(CC)n1c(Cc2cccs2)nc2cc(C(=O)N[C@@H](CC(C)C)C(=O)NC(C)c3ccc(F)cc3)ccc21 (stereo partly drawn) [Example 246, 1-(1-Ethyl-propyl)-2-thiophen-2-ylmethyl-1H-benzoimidazole-5-carboxylic acid {(S)-1-[1-(4-fluoro-phenyl)-ethylcarbamoyl]-3-methyl-butyl}-amide] | 6840
26 | CCC(CC)n1c(Cc2cccs2)nc2cc(C(=O)N[C@@H](CC(C)C)C(=O)N[C@@H](C)c3ccc(OC)cc3)ccc21 [Example 247, 1-(1-Ethyl-propyl)-2-thiophen-2-ylmethyl-1H-benzoimidazole-5-carboxylic acid {(S)-1-[(S)-1-(4-methoxy-phenyl)-ethylcarbamoyl]-3-methyl-butyl}-amide] | 7220
